Assay results: patent publication EP2283839A1, “Polyunsaturated hydroxylated molecule having an eze geometry and its use in therapy” (Institut National des Sciences Appliquées de Lyon, priority 2009, dated 2011)
Marks after values point to notes of the source that are not given here.

These compounds were tested on platelets isolated from human blood (assay: Measurement of platelet aggregation (turbidimetric method, aggregometer)). Details: 1 µM triene molecules; Collagen-induced platelet aggregation; measured after 4 min.
Format: cell-based
Protocol: Aggregation tests were performed on platelets isolated from human blood in presence or not of different dihydroxylated triene compounds with different double bond geometry: ZEE, EZE or ZZZ. Platelet aggregation was determined by a standard turbidimetric method using a dual aggregometer (CHRONO-LOG, USA). The levels of light transmission were calibrated as 0 % for a platelet suspension and 100% for the Tyrode/HEPES solution (pH 7.35). 400 µl of platelet suspension in a vial was preincubated for 1 min at 37 °C under a continuous stirring condition, 1 µl of sample in ethanol was added for incubation, the activators (collagen, arachidonic acid, or U46619) were added after 2 min of incubation and the extent of platelet aggregation was measured after 4 min running. Other compounds were prepared using the same procedure or by conversion of PDX and compared to similar compounds of different configurations ZEE or EEE. Table I: Effects of 1 µM triene molecules on Collagen-induced platelet aggregation

SMILES | % inhibition
CCCCC/C=C\C[C@H](O)/C=C/C=C\C=C\[C@@H](O)CCCC(=O)O [5(S),12(S)-diHETE, 5(S),12(S)-dihydroxy-eicosa-6E,8Z,10E,14Z tetraenoic acid] | 74.9** %
CCCCC/C=C\C[C@@H](O)/C=C/C=C/C=C/[C@@H](O)CCCC(=O)O [6-trans LTB4, 5(S),12(R)-dihydroxy-eicosa-6E,8E,10E,14Z-tetraenoic acid] | 8.1%
CCCCC/C=C\C[C@H](O)/C=C/C=C/C=C/[C@@H](O)CCCC(=O)O [6trans-12-epi LTB4, 5(S),12(S)-dihydroxy-eicosa-6E,8E,10E,14Z-tetraenoic acid] | 1.8%
CCCCC[C@H](O)/C=C/C=C\C=C\[C@@H](O)C/C=C\CCCC(=O)O [8(S),15(S)-diHETE, 8(S),15(S)-dihydroxy-eicosa-5Z,9E,11Z,13E -tetraenoic acid] | 66.5** %
CC/C=C\C[C@H](O)/C=C/C=C\C=C\[C@H](O)C/C=C\C/C=C\CCC(=O)O [10(R),17(S)-diOH-22:6, 10(R),17(S)-dihydroxy-docosa-4Z,7Z,11E,13Z,15E,17Z-hexaenoic acid] | 70.0** %
CCCCCCCC[C@H](O)/C=C/C=C/C=C\[C@@H](O)CCCC(=O)O [12-epi LTB3, 5(S),12(S)-dihydroxy-eicosa-6Z,8E,10E,-trienoic acid] | 7.4%
CCCCC/C=C\C[C@H](O)/C=C/C=C/C=C\[C@@H](O)CCCC(=O)O [12-epi LTB4, 5(S),12(S)-dihydroxy-eicosa-6Z,8E,10E,14Z-tetraenoic acid] | 3.9%
CCCCCCCC[C@@H](O)/C=C/C=C/C=C\[C@@H](O)CCCC(=O)O [LTB3, 5(S),12(R)-dihydroxy-eicosa-6Z,8E,10E,-trienoic acid] | 5.0%
CCCCC/C=C\C[C@@H](O)/C=C/C=C/C=C\[C@@H](O)CCCC(=O)O [LTB4, 5(S),12(R)-dihydroxy-eicosa-6Z,8E,10E,14Z-tetraenoic acid] | 3.4%
CC/C=C\C[C@H](O)/C=C/C=C\C=C\[C@@H](O)C/C=C\C/C=C\CCC(=O)O [PDX, 10S,17S-dihydroxy-docosa-4Z,7Z,11E,13Z,15E,19Z-hexaenoic acid] | 56.1** %
CCCCC[C@H](O)/C=C/C=C\C=C\[C@@H](O)CCCCCCCCC(=O)O [diOH-22:3, 10(S),17(S)-dihydroxy-docosa-11E,13Z,15E,-trienoic acid] | 63.8** %
